For the assay, the system named is P388 leukemia ip, CD2F1 mice, survival T/C. Put plainly: NCI In Vivo Anticancer Drug Screen. Data for tumor model P388 Leukemia (intraperitoneal) in CD2F1 (CDF1) mice. The settings on record: endpoint: median survival time, higher = longer survival. The procedure, abridged:
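Mice carrying the transplanted tumor received test compound or vehicle. Survival was recorded in each group, and the value is the treated-group measurement divided by that of the vehicle-treated control group.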

Where [1] appears, read: dose: 50.0 mg/kg/injection, schedule: Q01DX009 (ip), vehicle: saline with Tween-80.
The mark [2] stands for this setting: dose: 50.0 mg/kg/injection, schedule: Q01DX009 (ip), vehicle: saline.
Where [3] appears, read: dose: 100.0 mg/kg/injection, schedule: Q01DX009 (ip), vehicle: saline with Tween-80.
Where [4] appears, read: dose: 200.0 mg/kg/injection, schedule: Q01DX009 (ip), vehicle: saline with Tween-80.
[5] abbreviates: dose: 200.0 mg/kg/injection, schedule: Q01DX009 (ip), vehicle: saline.
Setting [6] is: dose: 50.0 mg/kg/injection, schedule: Q01DX005 (ip), vehicle: saline with Tween-80.
[7] abbreviates: dose: 100.0 mg/kg/injection, schedule: Q01DX005 (ip), vehicle: saline with Tween-80.
Setting [8] is: dose: 12.5 mg/kg/injection, schedule: Q01DX005 (ip), vehicle: saline.
Setting [9] is: dose: 25.0 mg/kg/injection, schedule: Q01DX005 (ip), vehicle: saline.
[10] abbreviates: dose: 50.0 mg/kg/injection, schedule: Q01DX005 (ip), vehicle: Klucel (hydroxypropylcellulose) (HPC).
Setting [11] is: dose: 100.0 mg/kg/injection, schedule: Q01DX005 (ip), vehicle: Klucel (hydroxypropylcellulose) (HPC).
Where [12] appears, read: dose: 200.0 mg/kg/injection, schedule: Q01DX005 (ip), vehicle: Klucel (hydroxypropylcellulose) (HPC).
[13] abbreviates: dose: 60.0 mg/kg/injection, schedule: Q01DX005 (ip), vehicle: saline with Tween-80.
Where [14] appears, read: dose: 120.0 mg/kg/injection, schedule: Q01DX005 (ip), vehicle: saline with Tween-80.
[15] abbreviates: dose: 240.0 mg/kg/injection, schedule: Q01DX005 (ip), vehicle: saline with Tween-80.
Where [16] appears, read: dose: 50.0 mg/kg/injection, schedule: Q01DX009 (ip), vehicle: Klucel (hydroxypropylcellulose) (HPC).
[17] abbreviates: dose: 100.0 mg/kg/injection, schedule: Q01DX009 (ip), vehicle: Klucel (hydroxypropylcellulose) (HPC).
Setting [18] is: dose: 200.0 mg/kg/injection, schedule: Q01DX009 (ip), vehicle: Klucel (hydroxypropylcellulose) (HPC).
Where [19] appears, read: dose: 60.0 mg/kg/injection, schedule: Q01DX005 (ip), vehicle: Klucel (hydroxypropylcellulose) (HPC).
Setting [20] is: dose: 120.0 mg/kg/injection, schedule: Q01DX005 (ip), vehicle: Klucel (hydroxypropylcellulose) (HPC).
Where [21] appears, read: dose: 240.0 mg/kg/injection, schedule: Q01DX005 (ip), vehicle: Klucel (hydroxypropylcellulose) (HPC).

Each structure is given as a SMILES string. “And” between values parts separate entries of the source, which are not always exact repeats. Equal values may be shown once. Inconclusive results and toxic doses are left out.

Regarding `CC/C(=N\NS(=O)(=O)c1ccc(C)cc1)c1ccc(OC)c(C)c1`, the T/C runs as follows: under setting [1], 105 % of control; under setting [2], 104 % of control; under setting [3], 97 % of control; under setting [4], 99 % of control; under setting [5], 96 % of control.

`CON(C)c1nc(N(C)C)nc(N(C)C)n1`: the T/C under setting [2] is 91 % of control; the T/C (dose: 100.0 mg/kg/injection, schedule: Q01DX009 (ip), vehicle: saline) is 98 % of control; the T/C under setting [5] is 96 % of control.

As for `Cc1noc(NC(=O)Nc2ccccc2F)c1C#N`, the T/C is 91 % of control under setting [6] and 100 % of control under setting [7].

In the case of `Clc1cc[c]([Sn]([Cl])([O][Sn]([Cl])([c]2ccc(Cl)cc2)[c]2ccc(Cl)cc2)[c]2ccc(Cl)cc2)cc1`, the T/C is 103 % of control (dose: 3.12 mg/kg/injection, schedule: Q01DX005 (ip), vehicle: saline); 108 % of control (dose: 6.25 mg/kg/injection, schedule: Q01DX005 (ip), vehicle: saline); 119 % of control under setting [8]; 162 % of control under setting [9].

For `Nc1cc(N)cc(C(=O)c2ccccc2)c1`, the T/C reads like this: under setting [3], 95 % of control; under setting [4], 95 % of control; (dose: 400.0 mg/kg/injection, schedule: Q01DX009 (ip), vehicle: saline with Tween-80) 90 % of control.

Regarding `CCOc1ccc(C(c2ccc(OCC)cc2)C(C)C)cc1`, the T/C was 108 % of control (dose: 50.0 mg/kg/injection, schedule: Q01DX009 (ip), vehicle: suspension in saline); 100 % of control (dose: 100.0 mg/kg/injection, schedule: Q01DX009 (ip), vehicle: suspension in saline); 105 % of control (dose: 200.0 mg/kg/injection, schedule: Q01DX009 (ip), vehicle: suspension in saline).

In the case of `COc1ccc2c(c1)CCC1(C)CC(=O)C=C21` (stereo not drawn), the T/C was 115 % of control (dose: 6.25 mg/kg/injection, schedule: Q01DX009 (ip), vehicle: Klucel (hydroxypropylcellulose) (HPC)); 114 % of control (dose: 12.5 mg/kg/injection, schedule: Q01DX009 (ip), vehicle: Klucel (hydroxypropylcellulose) (HPC)); 108 % of control (dose: 25.0 mg/kg/injection, schedule: Q01DX009 (ip), vehicle: Klucel (hydroxypropylcellulose) (HPC)).

In the case of `CCOCN(COCC)C(C)Cc1ccccc1` (stereo not drawn), the T/C is, setting by setting: (dose: 3.13 mg/kg/injection, schedule: Q01DX009 (ip), vehicle: saline with Tween-80) 104 % of control; (dose: 6.25 mg/kg/injection, schedule: Q01DX009 (ip), vehicle: saline with Tween-80) 107 % of control; (dose: 12.5 mg/kg/injection, schedule: Q01DX009 (ip), vehicle: saline with Tween-80) 114 % of control; (dose: 25.0 mg/kg/injection, schedule: Q01DX009 (ip), vehicle: saline with Tween-80) 123 % of control.

`CCCCc1ccc(NC(=O)On2c3ccccc3c3ccccc32)cc1`: the T/C is, setting by setting: under setting [10], 96 % of control; under setting [11], 94 % of control; under setting [12], 95 % of control.

Regarding `COc1ccc(C2CC(=O)NC2=O)cc1OC` (stereo not drawn), the T/C reads like this: under setting [13], 96 % of control; under setting [14], 92 % of control; under setting [15], 97 % of control.

`FC(F)(F)C(OCC1CO1)(c1cccc(C(OCC2CO2)(C(F)(F)F)C(F)(F)F)c1)C(F)(F)F` (stereo not drawn): the T/C reads like this: under setting [16], 99 % of control; under setting [17], 100 % of control; under setting [18], 100 % of control.

In the case of `Cn1c2ccccc2c2oc(-c3nn[nH]n3)cc(=O)c21`, the T/C is, setting by setting: under setting [19], 97 % of control; under setting [20], 105 % of control; under setting [21], 100 % of control.

Regarding `O=C(c1ccccc1)N1C=CN(C(=O)c2ccccc2)C1c1nccn1C(=O)c1ccccc1`, the T/C by setting is: under setting [1], 105 % of control; under setting [3], 96 % of control; under setting [4], 91 % of control.

As to `CCCOc1ccc(C#N)cc1`, the T/C was 102 % of control under setting [16], 108 % of control under setting [17] and 99 % of control under setting [18].

`COC1=CC2(CCN(C)C(=O)C(F)(F)F)C(=CC1=O)CCc1ccc(OC)c(O)c12` (stereo not drawn): the T/C by setting is: (dose: 100.0 mg/kg/injection, schedule: Q04DX002 (ip), vehicle: saline with Tween-80) 101 % of control; (dose: 200.0 mg/kg/injection, schedule: Q04DX002 (ip), vehicle: saline with Tween-80) 100 % of control; (dose: 400.0 mg/kg/injection, schedule: Q04DX002 (ip), vehicle: saline with Tween-80) 93 % of control.

For `CC1C=CC(C)S(=O)N1C(=O)Cc1ccccc1` (stereo not drawn), the T/C by setting is: under setting [19], 100 % of control; under setting [20], 106 % of control; under setting [21], 113 % of control.

In the case of `NC(=O)c1ccnn1C1OC(CO)C(O)C1O` (stereo not drawn), the T/C is, setting by setting: (dose: 32.0 mg/kg/injection, schedule: Q01DX002 (ip), vehicle: saline) 107 % of control and 116 % of control; (dose: 64.0 mg/kg/injection, schedule: Q01DX002 (ip), vehicle: saline) 104 % of control and 112 % of control; (dose: 128.0 mg/kg/injection, schedule: Q01DX002 (ip), vehicle: saline) 107 % of control.

As for `COc1cc(NCC(O)CN(CC(C)C)C2CCCC2)c2ncccc2c1` (stereo not drawn), the T/C is, setting by setting: under setting [8], 100 % of control; under setting [9], 99 % of control.

In the case of `O=c1ccnc(Nc2ccc[nH]c2=S)[nH]1`, the T/C was 100 % of control under setting [10]; 105 % of control under setting [13]; 99 % of control under setting [11]; 105 % of control under setting [14]; 93 % of control under setting [12]; 100 % of control under setting [15].

As for `Cc1ccccc1C1OC2=C(Nc3ccc([N+](=O)[O-])cc3N2)C1=O` (stereo not drawn), the T/C was 88 % of control under setting [19], 90 % of control under setting [20] and 101 % of control under setting [21].

With `CCCCCCCCCCCCCCC(C(=O)[O-])[n+]1ccccc1` (stereo not drawn), the T/C reads like this: (dose: 15.0 mg/kg/injection, schedule: Q01DX005 (ip), vehicle: saline) 114 % of control; (dose: 30.0 mg/kg/injection, schedule: Q01DX005 (ip), vehicle: saline) 96 % of control; (dose: 60.0 mg/kg/injection, schedule: Q01DX005 (ip), vehicle: saline) 110 % of control.

On to `C=CCOc1c(C=O)cccc1OC`, for which the T/C (dose: 25.0 mg/kg/injection, schedule: Q01DX005 (ip), vehicle: saline with Tween-80) was 101 % of control; the T/C under setting [6] was 100 % of control; the T/C under setting [7] is 108 % of control.

As to `O=C(CNC(=O)Nc1ccc(Cl)c(Cl)c1)N/N=C/c1cccc(F)c1`, the T/C reads like this: (dose: 15.0 mg/kg/injection, schedule: Q01DX005 (ip), vehicle: saline with Tween-80) 89 % of control; (dose: 30.0 mg/kg/injection, schedule: Q01DX005 (ip), vehicle: saline with Tween-80) 91 % of control; under setting [13], 89 % of control.

As for `CC1=CC(C)(C)Nc2ccc(OC(=O)/C=C(C)/C=C/C=C(C)/C=C/C3=C(C)CCCC3(C)C)cc21`, the T/C is, setting by setting: under setting [13], 94 % of control; under setting [14], 91 % of control; under setting [15], 94 % of control.

As to `Cc1oc2c(C)c3oc(=O)cc(C)c3cc2c1CO`, the T/C (dose: 100.0 mg/kg/injection, schedule: Q05DX002 (ip), vehicle: Klucel (hydroxypropylcellulose) (HPC)) was 92 % of control; the T/C (dose: 200.0 mg/kg/injection, schedule: Q05DX002 (ip), vehicle: Klucel (hydroxypropylcellulose) (HPC)) was 97 % of control; the T/C (dose: 400.0 mg/kg/injection, schedule: Q05DX002 (ip), vehicle: Klucel (hydroxypropylcellulose) (HPC)) was 95 % of control.

As for `C[N+]1=Nc2cccc3cccc(c23)[N-]1`, the T/C is 111 % of control (dose: 50.0 mg/kg/injection, schedule: Q01DX001 (ip), vehicle: Klucel (hydroxypropylcellulose) (HPC)); 102 % of control (dose: 100.0 mg/kg/injection, schedule: Q01DX001 (ip), vehicle: Klucel (hydroxypropylcellulose) (HPC)); 100 % of control (dose: 200.0 mg/kg/injection, schedule: Q01DX001 (ip), vehicle: Klucel (hydroxypropylcellulose) (HPC)).

(Values after PubChem BioAssay AID330 (DTP/NCI, 2004).)
